Measured values published in paper PMC3578047 (European journal of pharmacology, 2012).
Structures can show the parent of a compound that is named as a salt.

Experiments:
[1] = cynomolgus monkey; ref Ulu et al., 2011; cited from earlier work
[2] = test system: streptozocin induced type I diabetic neuropathic pain (mechanical allodynia); type: in vivo, rat; conditions: for anti-allodynic effect over the time course versus vehicle: 15 min to 6 h; for effect on neuropathic allodynia versus vehicle: 10 mg/kg s.c., over 6 h time course
[3] = test system: plasma epoxyeicosatrienoic acids, dihydroxyeicosatrienoic acids, PGE2 and PGD2; assay: plasma oxylipin analysis in the inflammatory pain model; type: in vivo, rat; conditions: 2 h post lipopolysaccharide
[4] = test system: naive rats; assay: von Frey assay in the absence of a pain state; type: in vivo, rat; conditions: for mechanical withdrawal thresholds in naive rats: 3 mg/kg
[5] = ref Liu 2009; cited from earlier work
[6] = ref Liu et al., 2009; cited from earlier work
[7] = test system: lipopolysaccharide induced inflammatory pain (mechanical allodynia); type: in vivo, rat; conditions: for effect on lipopolysaccharide induced allodynia over the dose range: s.c. 60 min prior to lipopolysaccharide, at 2 h
[8] = test system: naive rats; assay: rotorod motor skill test; conditions: 3 mg/kg
[9] = test system: human sEH; conditions: read-out: IC50 Human, fluorescent assay, ref Hwang 2007; cited from earlier work
[10] = experimental logP; conditions: determined experimentally as described by Tsai et al. 2010
[11] = plasma pharmacokinetics in rat; type: in vivo; conditions: low dose, mean plasma AUC (S2)
[12] = 3 mg/kg s.c. 60 min prior to lipopolysaccharide

In the case of `CC(=O)N1CCC(NC(=O)NC23CC4CC(CC(C4)C2)C3)CC1` [APAU, 1-(1-acetypiperidin-4-yl)-3-adamantanylurea], the plasma protein binding [1] is given as 35.5%, the duration of anti-nociception ([2]; 3 mg/kg s.c., diabetic rats) is given as “up to 5 h” and the “time of first anti-allodynic effect” value ([2]; 3 mg/kg s.c., diabetic rats) is given as 15 min. For the same compound, the “anti-allodynic effect over the time course versus vehicle” value ([2]; 3 mg/kg s.c., diabetic rats) was “blocked allodynia by the first measurement at 15 minutes”, the “effect on neuropathic allodynia versus vehicle” value ([2]; diabetic rats) was “significantly decreased allodynia” and the “most effective dose against allodynia” value ([2]; s.c., dose range 0.1-100 mg/kg, at 2 h) was 3 mg/kg. For the same compound, the “plasma PGE2 and PGD2 versus lipopolysaccharide + vehicle” value ([3]; 3 mg/kg) was “reduced both prostaglandins significantly”, the “plasma PGE2 and PGD2 versus lipopolysaccharide + vehicle” value ([3]; 100 mg/kg) was “did not significantly decrease PGE2 and PGD2 levels” and the “sum dihydroxyeicosatrienoic acids in plasma versus vehicle controls” value ([3]; 3 and 100 mg/kg) was “significantly lowered dihydroxyeicosatrienoic acids”. The “sum epoxyeicosatrienoic acids in plasma versus vehicle controls” value ([3]; 3 and 100 mg/kg) was “did not significantly alter sum epoxyeicosatrienoic acids levels”, the “mechanical withdrawal thresholds in naive rats” value [4] was “showed no effect in the assay” and the “nociceptive thresholds in absence of pain state versus vehicle” value ([4]; 100 mg/kg) was “did not significantly alter the nociceptive thresholds”. The “Water Solubility” value [5] was 310 ±60 mg/L^b, the plasma half-life [6] was “relatively short plasma half-life” and the “effect of oral gavage dose compared to s.c. dose” value ([7]; 3 mg/kg oral gavage in PEG400, 1 h prior to lipopolysaccharide) was “equaled the maximal effect of the s.c. dose”. For the same compound, the “earliest time point at which pain was blocked” value [7, 12] was 15 min, the “effect over the time course versus vehicle control” value [7, 12] was “significant versus vehicle control over the time course” and the “effect on lipopolysaccharide induced allodynia over the dose range” value [7] was “All doses of APAU except 0.1 mg/kg significantly blocked the lipopolysaccharide induced allodynia”.

With `Cc1ccc(-c2cc(C(F)(F)F)nn2-c2ccc(S(N)(=O)=O)cc2)cc1` [celecoxib, reference compound] the “effect on neuropathic allodynia versus vehicle” value ([2]; diabetic rats) was “no significant effect on the neuropathic allodynia” and the “effect on lipopolysaccharide induced allodynia” value ([7]; 10 mg/kg, 1 h prior to intraplantar lipopolysaccharide, over 6 h time course) was “marginal effect at the 3 hour time point”.

For `CN1CC[C@]23c4c5ccc(O)c4O[C@H]2[C@@H](O)C=C[C@H]3[C@H]1C5` [morphine, Morphine sulfate, reference compound], the “mechanical withdrawal thresholds in naive rats” value [4] was “significant increase in mechanical withdrawal thresholds” and the “rotorod performance versus vehicle controls” value [8] was “no significant effect on rotorod performance”.

For `O=C(NC12CC3CC(CC(C3)C1)C2)N[C@H]1CC[C@H](Oc2ccc(C(=O)O)cc2)CC1` [t-AUCB, trans-4-[4-(3-adamantan-1-yl-ureido)-cyclohexyloxy]-benzoic acid], the “anti-allodynic effect over the time course versus vehicle” value ([2]; 3 mg/kg s.c., diabetic rats) is listed as “significant versus vehicle control over the time course but overall the effect was brief”, the “only dose with significant anti-allodynic effect” value ([2]; s.c., dose range 1-100 mg/kg, at 2 h) is listed as 100 mg/kg and the IC50 [9] is listed as […]. The “effect over the time course versus vehicle control” value [7, 12] was “lacked a significance versus vehicle control over the time course” and the “effect on lipopolysaccharide induced allodynia over the dose range” value [7] was “significantly blocked pain related behavior only at the two highest doses 30 and 100 mg/kg”.

In the case of `O=C(Nc1cccc(OC(F)(F)F)c1)N[C@H]1CC[C@H](Oc2ccc(C(=O)O)cc2)CC1` [t-TUCB, trans-4-[4-(3-trifluoromethoxyphenyl-l-ureido)-cyclohexyloxy]-benzoic acid], the eLogP [10] is given as 1.6, the plasma protein binding [1] is given as 99% and the “anti-allodynic effect over the time course versus vehicle” value ([2]; 3 mg/kg s.c., diabetic rats) is given as “significantly effective versus vehicle control over the time course but was delayed and less active when compared to APAU”. The mechanical withdrawal thresholds ([2]; 10 mg/kg, diabetic rats, early time points (Fig. S1, Table S3)) was “increased mechanical withdrawal thresholds to pre-diabetic pain free scores at early time points”, the “dose of maximal response, the only significant dose” value ([2]; s.c., dose range 0.1-100 mg/kg, at 3 h) was 10 mg/kg and the IC50 [9] was 0.9 nM. The “overall pharmacokinetics in rats” value [11] was “best overall pharmacokinetics at low dose”.
